Source: ChEMBL document CHEMBL1201862, “PubChem BioAssay data set” (2004)
The source made the active and inactive calls.

What was measured:
[1] = biological target: Beta-2 adrenergic receptor (Homo sapiens, UniProt P07550); test: ADRB2 activation measured by internalization – cell-based, FAP fluorogen, flow cytometry, cherry pick 1, dose response (AID 588763); format: functional
[2] = biological target: T1, Insulin-degrading enzyme (Homo sapiens, UniProt P14735); test: cellular IDE activation of Abeta substrate cleavage – fluorescence polarization, HEK cells, dose response (AID 588439); format: functional, cell-based
T1 sequence (P14735 whole entry): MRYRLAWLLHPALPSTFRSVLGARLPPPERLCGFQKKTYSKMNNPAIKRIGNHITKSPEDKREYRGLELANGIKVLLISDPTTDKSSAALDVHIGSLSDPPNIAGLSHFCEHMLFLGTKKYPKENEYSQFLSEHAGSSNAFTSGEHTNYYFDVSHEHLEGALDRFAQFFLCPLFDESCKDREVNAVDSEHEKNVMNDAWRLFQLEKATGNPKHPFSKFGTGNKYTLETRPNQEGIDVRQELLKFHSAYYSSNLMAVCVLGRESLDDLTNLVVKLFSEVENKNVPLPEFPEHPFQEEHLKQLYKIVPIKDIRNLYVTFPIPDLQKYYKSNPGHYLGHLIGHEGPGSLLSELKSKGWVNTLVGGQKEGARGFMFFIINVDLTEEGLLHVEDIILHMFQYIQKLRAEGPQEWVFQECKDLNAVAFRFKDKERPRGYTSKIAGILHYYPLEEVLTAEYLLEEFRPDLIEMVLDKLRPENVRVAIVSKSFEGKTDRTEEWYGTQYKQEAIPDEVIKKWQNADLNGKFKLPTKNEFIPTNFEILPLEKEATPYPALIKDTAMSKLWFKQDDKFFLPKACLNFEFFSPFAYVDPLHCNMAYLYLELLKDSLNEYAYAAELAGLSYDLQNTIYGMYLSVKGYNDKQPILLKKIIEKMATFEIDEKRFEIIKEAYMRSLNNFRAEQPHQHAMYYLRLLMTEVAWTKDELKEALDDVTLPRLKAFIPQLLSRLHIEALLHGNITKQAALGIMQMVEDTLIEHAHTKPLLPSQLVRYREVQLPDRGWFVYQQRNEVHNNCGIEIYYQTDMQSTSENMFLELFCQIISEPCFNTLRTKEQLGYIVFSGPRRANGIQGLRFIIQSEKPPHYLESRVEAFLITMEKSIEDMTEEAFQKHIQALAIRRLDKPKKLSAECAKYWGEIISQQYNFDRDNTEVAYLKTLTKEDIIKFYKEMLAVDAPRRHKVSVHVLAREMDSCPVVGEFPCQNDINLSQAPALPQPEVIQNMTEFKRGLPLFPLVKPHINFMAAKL

[3] = test system: HEK293; test: membrane integrity loss in HEK cells – cell-based, fluorescence, cytotoxicity control for IDE activator project, dose response (AID 588440); format: functional; details: Homo sapiens;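 further: cytotoxicity by LDH release measuring loss of membrane integrity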
[4] = test system: HEK293; test: optical interference in Abeta FP readout, dose response, artefact control for IDE activator project, biochemical, fluorescence polarization (AID 588442); format: functional, cell-based; details: Homo sapiens
[5] = biological target: T1, Insulin-degrading enzyme; test: recombinant IDE activation, cell-free – biochemical, fluorescence polarization, counter-screen for IDE activator project, dose response (AID 588681)
[6] = loss of viability in HepG2 cells – cell-based, CellTiter-Glo, cherry-picked, cytotoxicity control for Shn3 inhibitor project, dose response (AID 624134); format: functional
[7] = non-specific 3'UTR reporter inhibition in Clone20-Shn3RL – cell-based, Renilla luciferase, cherry-picked, counter-screen for Shn3 inhibitor project, dose response (AID 624133); format: functional
[8] = test system: HEK293; test: EBV LMP1 TES2 canonical NF-kB signalling blockers – cell-based, HEK293, luciferase, cherry-pick, dose response (AID 588343); format: functional; details: Homo sapiens
[9] = reduction of Shn3 3'UTR-driven luciferase in osteoblasts – cell-based, Clone20 osteoblasts, firefly luciferase, cherry-picked, dose response (AID 624132); format: functional;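 further: firefly luciferase luminescence from reporter carrying the Shn3 3'UTR in osteoblasts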
[10] = test system: BJ; test: cells; format: functional, cell-based; details: Homo sapiens
[11] = off-target signal loss in HeLa-CEM21 co-culture – HeLa F-luc CTL cells, cherry-picked, counter-screen for HIV-1 Env fusion inhibitor project, dose response (AID 652040); format: functional, cell-based;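 further: potency for signal decrease marking cytotoxic or nonspecific inhibition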
[12] = viability loss in HEK293 cells – cell-based, plate reader, cherry-picked samples, cytotoxicity control, dose response (AID 743446); format: functional
[13] = test system: BJ; test: BJ-TERT-LT-ST fibroblast viability loss – cell-based, RAS-independent, luminescence, dose response (AID 1935); format: functional; details: Homo sapiens;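 further: BJ fibroblasts immortalized with TERT plus LT and ST oncogenes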
[14] = test system: BJ; test: growth inhibition of engineered Ras-driven BJ cells – cell-based, alamar blue fluorescence, cherrypicked samples, dose response (AID 2631); format: functional; details: Homo sapiens;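 further: confirmatory dose-response assay in RAS-dependent BJ fibroblasts engineered with TERT, LT and ST, with cytotoxicity read by fluorescence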
[15] = HEK-293T viability loss, compound-treated – cell-based, uHTS hits, cytotoxicity control for B/T-cell NF-kB inhibitor project, dose response (AID 489019); format: functional;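 further: IC50 reflects cytotoxicity as loss of cell viability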
[16] = toxicity toward HepG2 liver cells – cell-based, plate reader, cherry-pick, antagonist series, cytotoxicity control, dose response (AID 743416); format: functional
[17] = viability loss in CEM21 cells – cell-based, CellTiter-Glo luminescence, cherry-picked, cytotoxicity control for viral fusion inhibitor project, dose response (AID 652042); format: functional;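 further: potency for signal decrease meaning cytotoxicity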
[18] = blockers of HIV-1 ZM109 envelope-driven cell-cell fusion – HeLa effector, CEM target cells, luciferase, cherry-pick, dose response (AID 652058); format: functional, cell-based;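 further: luciferase signal from HIV-1 Env mediated cell-cell fusion of effector and target cells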
[19] = test system: INS1; test: INS-1E survival protection against cytokine death – cell-based, luminescence, retest, dose response (AID 449756); format: functional; details: Rattus norvegicus;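 further: cell death triggered by IL-1 beta plus TNF-alpha plus IFN-gamma mixture; protective hits raise ATP signal compared with cytokine alone wells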
[20] = blockers of bursicon-stimulated LGR2 cAMP reporter – cell-based, HEK293, CRE-luciferase reporter, cherry pick, set 2, dose response (AID 743343); format: functional;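 further: transfected cells were stimulated with diluted bursicon conditioned medium after compound addition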
[21] = blockers of HIV-1 envelope-mediated cell-cell fusion – cherry-pick, dose response (AID 652057); format: functional, cell-based
[22] = test system: H4; test: inhibitors of control reporter signal in H4 cells – cell-based, plate reader, dry powder samples, counter-screen for prion reporter project, dose response (AID 540255); format: functional; details: Homo sapiens
[23] = biological target: T2, Luciferin 4-monooxygenase (Photinus pyralis, UniProt P08659); test: inhibition of purified Photinus pyralis luciferase – biochemical, dry powder samples, plate reader, dose response (AID 588451)
[24] = Luminescence Cell-Based Dose Confirmation HTS to Identify Inhibitors of Platelet Dense Granule Release. [Related pubchem assays: 1663 (Primary HTS), 1678 (Summary of Project)]; format: functional
[25] = test system: BJ; test: BJ-TERT fibroblast viability loss – cell-based, RAS-independent, luminescence, dose response (AID 1933); format: functional; details: Homo sapiens
[26] = biological target: Heat shock protein HSP 90-alpha (Homo sapiens, UniProt P07900); format: functional, organism-based
[27] = biological target: T2, Luciferin 4-monooxygenase; test: inhibition of purified Photinus pyralis luciferase – biochemical, luminescence, dose response (AID 1891)
[28] = DRD fibroblast viability loss – cell-based, non-viral oncogenic, luminescence, dose response (AID 1934); format: functional; details: Homo sapiens
[29] = blockade of melanocortin 4 receptor signaling – cell-based, plate reader, cherry pick, counter-screen for LGR2 antagonist project, dose response (AID 743444); format: functional;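 further: transfected HEK 293 cells stimulated with alpha-MSH peptide; potency of inhibitors of the alpha-MSH evoked signal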
[30] = HIV-1 AD8 envelope cell-cell fusion blockers – cherry-pick, dose response (AID 652062); format: functional, cell-based;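 further: luciferase signal from cell-cell fusion driven by HIV-1 clade B AD8 Env; potency is for inhibitors of fusion seen as a drop in luminescence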
[31] = A549 cell cytotoxicity, dose response, cytotoxicity control, plate reader, cherry-pick, antagonist series (AID 743412); format: functional, cell-based
[32] = test system: H4; test: Inhibitors of Prion Protein 5' UTR mRNA Measured in Cell-Based System Using Plate Reader - 2078-01_Inhibitor_Dose_DryPowder_Activity. [Related pubchem assays (depositor defined):AID488894]; format: functional; details: Homo sapiens
[33] = test system: Jurkat; test: blockers of NF-kB activation in T cells – Jurkat, luciferase reporter, luminescence, B- and T-cell, dose response (AID 489004); format: functional, cell-based; details: Homo sapiens;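 further: NF-kB luciferase reporter Jurkat cells stimulated with PMA plus ionomycin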
[34] = test system: H4; test: Amyloid Precursor 5' UTR neuroblastoma cell reporter line Measured in Cell-Based System Using Plate Reader - 2078-04_Inhibitor_Dose_DryPowder_Activity. [Related pubchem assays (depositor defined):AID488894]; format: functional; details: Homo sapiens
[35] = biological target: T3, High affinity choline transporter 1 (Homo sapiens, UniProt Q9GZV3); test: human choline transporter potentiators, potency – cell-based, 10-point CRC, membrane potential dye, dose response (AID 602376); format: functional
T3 sequence (Q9GZV3 whole entry): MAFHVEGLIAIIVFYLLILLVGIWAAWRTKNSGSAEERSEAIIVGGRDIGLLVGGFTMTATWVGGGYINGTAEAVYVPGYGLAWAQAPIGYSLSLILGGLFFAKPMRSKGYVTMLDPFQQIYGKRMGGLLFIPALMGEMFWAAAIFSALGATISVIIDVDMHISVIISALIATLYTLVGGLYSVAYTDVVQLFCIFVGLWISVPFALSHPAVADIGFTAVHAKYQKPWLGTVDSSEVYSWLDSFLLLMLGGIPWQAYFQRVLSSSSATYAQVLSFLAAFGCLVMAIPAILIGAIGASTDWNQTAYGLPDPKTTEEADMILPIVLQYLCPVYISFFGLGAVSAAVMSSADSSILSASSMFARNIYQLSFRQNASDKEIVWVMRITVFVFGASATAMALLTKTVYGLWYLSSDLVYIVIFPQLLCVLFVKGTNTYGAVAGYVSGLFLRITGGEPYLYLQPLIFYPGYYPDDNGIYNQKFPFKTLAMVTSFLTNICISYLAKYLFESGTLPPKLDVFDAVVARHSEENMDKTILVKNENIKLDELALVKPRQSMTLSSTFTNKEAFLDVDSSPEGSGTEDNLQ

T2 sequence (P08659 whole entry): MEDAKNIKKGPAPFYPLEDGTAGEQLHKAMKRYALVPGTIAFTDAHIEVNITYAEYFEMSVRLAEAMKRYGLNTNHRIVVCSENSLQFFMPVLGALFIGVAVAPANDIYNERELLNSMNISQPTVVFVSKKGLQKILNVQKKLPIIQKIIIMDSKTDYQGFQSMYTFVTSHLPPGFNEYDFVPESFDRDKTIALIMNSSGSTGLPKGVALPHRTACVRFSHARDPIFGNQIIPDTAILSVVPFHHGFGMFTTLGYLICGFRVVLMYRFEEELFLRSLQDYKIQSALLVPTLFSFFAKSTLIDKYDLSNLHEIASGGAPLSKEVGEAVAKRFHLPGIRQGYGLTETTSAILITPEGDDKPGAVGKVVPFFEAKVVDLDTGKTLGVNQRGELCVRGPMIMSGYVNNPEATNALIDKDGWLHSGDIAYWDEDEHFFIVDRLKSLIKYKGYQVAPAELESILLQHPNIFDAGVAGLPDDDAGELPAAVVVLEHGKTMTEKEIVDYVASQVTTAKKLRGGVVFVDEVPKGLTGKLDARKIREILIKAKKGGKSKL
Sequence of Beta-2 adrenergic receptor (P07550 whole entry): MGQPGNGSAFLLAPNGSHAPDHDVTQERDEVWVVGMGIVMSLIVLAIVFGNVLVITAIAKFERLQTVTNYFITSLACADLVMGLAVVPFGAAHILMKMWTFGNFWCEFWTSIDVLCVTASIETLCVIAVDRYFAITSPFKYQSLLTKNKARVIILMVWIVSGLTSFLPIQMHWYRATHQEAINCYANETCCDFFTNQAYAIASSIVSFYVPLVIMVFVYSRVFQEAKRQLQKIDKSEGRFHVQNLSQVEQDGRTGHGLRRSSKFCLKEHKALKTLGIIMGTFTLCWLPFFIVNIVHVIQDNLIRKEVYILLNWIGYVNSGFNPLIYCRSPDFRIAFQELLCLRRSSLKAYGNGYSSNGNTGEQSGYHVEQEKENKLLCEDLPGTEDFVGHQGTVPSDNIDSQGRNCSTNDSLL

Compound: Cc1ccc(N(C)S(=O)(=O)c2cc(-c3cnc(C4CC4)o3)ccc2C)cc1
- EC50 [1]: 2460 nM (active)

Compound: O=C(COc1cccc2cccnc12)Nc1cccc(S(=O)(=O)N2CCCC2)c1
- EC50 [2]: > 54700 nM (inactive)
- IC50 [3]: > 89200 nM (inactive)
- EC50 [4]: > 55900 nM (inactive)
- EC50 [5]: > 54700 nM (inactive)

Compound: Cc1ccccc1C(=O)NC(=S)Nc1ccc(N2CCN(C(=O)c3ccccc3)CC2)cc1
- AC50 [6]: 51500 nM (active)
- AC50 [7]: 7720 nM (active)
- AC50 [8]: 1700 nM (active)
- AC50 [9]: 1880 nM (active)

Compound: COc1cc(SC)ccc1C(=O)Nc1nc2ccccc2[nH]1
- EC50 [10]: 1260 nM (active)
- AC50 [11]: 513 nM (active)
- AC50 [12]: 3350 nM (active)
- EC50 [13]: 2260 nM (active)
- EC50 [14]: > 133000 nM (inactive)
- IC50 [15]: > 80000 nM (inactive)
- AC50 [16]: 14500 nM (active)
- AC50 [17]: 1280 nM (active)
- AC50 [18]: 1980 nM (active)
- AC50 [19]: 1120 nM (active)
- AC50 [20]: < 68 nM (active)
- AC50 [21]: 260 nM (active)
- AC50 [22]: 885 nM (active)
- AC50 [23]: 9.03 nM (active)
- EC50 [24]: 240 nM (active)
- EC50 [25]: 1020 nM (active)
- AC50 [26]: 1420 nM (active)
- EC50 [27]: 152 nM (active)
- AC50 [6]: 28500 nM (active)
- EC50 [28]: 930 nM (active)
- AC50 [29]: < 68 nM (active)
- AC50 [30]: 319 nM (active)
- AC50 [31]: 2520 nM (active)
- AC50 [32]: 28 nM (active)
- IC50 [33]: < 160 nM (active)
- AC50 [34]: < 0.015 nM (active)
- AC50 [9]: < 260 nM (active)

Compound: O=C(c1cccc(C(F)(F)F)c1)C1CCCN(Cc2cccn2-c2ncccn2)C1 (configuration not stated)
- EC50 [35]: 6690 nM (active)
